Data taken from PubChem BioAssay AID1259411 (Chemical Carcinogenesis Research Information System (CCRIS), 2018).
Active and inactive are the calls of the source. No rule for the calls is given here.

Tested on: rodent carcinogenicity bioassays, tumor incidence
Experiment: CCRIS carcinogenicity studies
In short: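 NCI-built, expert-reviewed records of carcinogenicity and related test outcomes (mutagenicity, tumor promotion/inhibition) compiled from published and report sources, historical span 1985-2011, not updated.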

O=C1c2ccccc2C(=O)C1c1ccc2ccccc2n1
carcinogen call (Species: RAT, Strain/Sex: F344/FEMALE, Route: ORAL, Dose: 0, 500, 1700, 5000 PPM IN DIET FOR 106 WK (STUDY DURATION: 111 WK), Dose: 0, 500, 1700, 5000 PPM IN DIET FOR 106 WK (STUDY DURATION: 111 WK), Tumor Site: Type of Lesion: LIVER: HEPATOCELLULAR ADENOMA OR CARCINOMA): active; positive | carcinogen call (Species: RAT, Strain/Sex: F344/MALE, Route: ORAL, Dose: 0, 500, 1700, 5000 PPM IN DIET FOR 105 WK (STUDY DURATION: 110 WK), Dose: 0, 500, 1700, 5000 PPM IN DIET FOR 105 WK (STUDY DURATION: 110 WK), Tumor Site: Type of Lesion: KIDNEY(RENAL TUBULE): ADENOMA OR CARCINOMA, LIVER: HEPATOCELLULAR ADENOMA, ORAL CAVITY: SQUAMOUS CELL PAPILLOMA, SQUAMOU, Tumor Site: Type of Lesion: KIDNEY(RENAL TUBULE): ADENOMA OR CARCINOMA, LIVER: HEPATOCELLULAR ADENOMA, ORAL CAVITY: SQUAMOUS CELL PAPILLOMA, SQUAMOU): active; positive

COc1ccc(C(=O)Nc2c(Cl)cncc2Cl)cc1OC1CCCC1
carcinogen call (Species: RAT, Strain/Sex: SPRAGUE-DAWLEY/FEMALE, Route: INHALATION, Dose: 0, 0.125, 0.5, 1.0 MG/KG BW/D 1 HR/D IN A DRY-POWDER FORMULATION WITH LACTOSE VEHICLE USING A NOSE-ONLY AEROSOL EXPOSURE, Dose: 0, 0.125, 0.5, 1.0 MG/KG BW/D 1 HR/D IN A DRY-POWDER FORMULATION WITH LACTOSE VEHICLE USING A NOSE-ONLY AEROSOL EXPOSURE, Tumor Site: Type of Lesion: NASAL OLFACTORY REGION: TUMORS): active; positive | carcinogen call (Species: RAT, Strain/Sex: SPRAGUE-DAWLEY/MALE, Route: INHALATION, Dose: 0, 0.125, 0.5, 1.0 MG/KG BW/D 1 HR/D IN A DRY-POWDER FORMULATION WITH LACTOSE VEHICLE USING A NOSE-ONLY AEROSOL EXPOSURE, Dose: 0, 0.125, 0.5, 1.0 MG/KG BW/D 1 HR/D IN A DRY-POWDER FORMULATION WITH LACTOSE VEHICLE USING A NOSE-ONLY AEROSOL EXPOSURE, Tumor Site: Type of Lesion: NASAL OLFACTORY REGION: TUMORS): active; positive

O[C@H]1C=Cc2c(cc3ccc4cccc5ccc2c3c45)[C@@H]1O
carcinogen call (Species: FISH, Strain/Sex: RAINBOW TROUT/MALE,FEMALE, Route: INJECTION, Dose: 0, 0.01, 1 UG INJECTED INTO NEWLY HATCHED SAC-FRY ONCE (STUDY DURATION: 9 MO), Dose: 0, 0.01, 1 UG INJECTED INTO NEWLY HATCHED SAC-FRY ONCE (STUDY DURATION: 9 MO), Tumor Site: Type of Lesion: LIVER: TUMOR): active; positive | carcinogen call (Species: FISH, Strain/Sex: RAINBOW TROUT/MALE,FEMALE, Route: INJECTION, Dose: 0, 0.5, 2, 5 UG INJECTED INTO NEWLY HATCHED SAC-FRY (STUDY DURATION: 9 MO), Dose: 0, 0.5, 2, 5 UG INJECTED INTO NEWLY HATCHED SAC-FRY (STUDY DURATION: 9 MO), Tumor Site: Type of Lesion: LIVER: TUMOR): active; positive | carcinogen call (Species: MOUSE, Strain/Sex: C57BL/FEMALE, Route: DERMAL, Dose: 0.15, 0.30 UMOL IN ACETONE/NH4OH (1000:1) EVERY 2 WK FOR 60 WK, Tumor Site: Type of Lesion: INTEGUMENTARY SYSTEM (SKIN): SQUAMOUS CELL CARCINOMA): active; positive | carcinogen call (Species: MOUSE, Strain/Sex: SWISS/MALE,FEMALE, Route: INTRAPERITONEAL, Dose: 200 NMOL ON FIRST D OF LIFE, 400 NMOL ON D 8, 800 NMOL ON D 15, Tumor Site: Type of Lesion: LUNG: ADENOMA, HEMATOPOIETIC SYSTEM (LEUKEMIA), LYMPHATIC SYSTEM: MALIGNANT LYMPHOMA, Tumor Site: Type of Lesion: LUNG: ADENOMA, HEMATOPOIETIC SYSTEM (LEUKEMIA), LYMPHATIC SYSTEM: MALIGNANT LYMPHOMA): active; positive

O[C@@H]1[C@H]2O[C@H]2c2c(ccc3cc4ccc5ccccc5c4nc23)[C@H]1O
carcinogen call (Species: MOUSE, Strain/Sex: CD-1/FEMALE, Route: INTRAPERITONEAL, Dose: 0, 175 NMOL (TOTAL DOSE) ADMINISTERED AS 1/7 OF DOSE WITHIN 24 HR AFTER BIRTH, 2/7 OF DOSE AT 8 D OLD, 4/7 OF DOSE AT 15, Tumor Site: Type of Lesion: LIVER: TUMOR, LUNG: TUMOR): active; positive | carcinogen call (Species: MOUSE, Strain/Sex: CD-1/MALE, Route: INTRAPERITONEAL, Dose: 0, 175 NMOL (TOTAL DOSE) ADMINISTERED AS 1/7 OF DOSE WITHIN 24 HR AFTER BIRTH, 2/7 OF DOSE AT 8 D OLD, 4/7 OF DOSE AT 15, Tumor Site: Type of Lesion: LIVER: TUMOR, LUNG: TUMOR): active; positive

Cc1ccccc1
carcinogen call (Species: MOUSE, Strain/Sex: B6C3F1/FEMALE, Route: INHALATION, Dose: 0, 120, 600, 1200 PPM 6.5 HR/D 5 D/WK FOR 103 WK (STUDY DURATION: 104 WK), Dose: 0, 120, 600, 1200 PPM 6.5 HR/D 5 D/WK FOR 103 WK (STUDY DURATION: 104 WK)): inactive; negative | carcinogen call (Species: MOUSE, Strain/Sex: B6C3F1/MALE, Route: INHALATION, Dose: 0, 120, 600, 1200 PPM 6.5 HR/D 5 D/WK FOR 103 WK (STUDY DURATION: 104 WK), Dose: 0, 120, 600, 1200 PPM 6.5 HR/D 5 D/WK FOR 103 WK (STUDY DURATION: 104 WK)): inactive; negative | carcinogen call (Species: RAT, Strain/Sex: F344/FEMALE, Route: INHALATION, Dose: 0, 600, 1200 PPM 6.5 HR/D 5 D/WK FOR 103 WK (STUDY DURATION: 104 WK), Dose: 0, 600, 1200 PPM 6.5 HR/D 5 D/WK FOR 103 WK (STUDY DURATION: 104 WK)): inactive; negative | carcinogen call (Species: RAT, Strain/Sex: F344/MALE, Route: INHALATION, Dose: 0, 600, 1200 PPM 6.5 HR/D 5 D/WK FOR 103 WK (STUDY DURATION: 104 WK), Dose: 0, 600, 1200 PPM 6.5 HR/D 5 D/WK FOR 103 WK (STUDY DURATION: 104 WK)): inactive; negative | carcinogen call (Species: RAT, Strain/Sex: STRAIN-CD/MALE, Route: INTRAGASTRIC, Dose: 0, 500 MG/KG IN OLIVE OIL 1/D 4-5 D/WK FOR 104 WK (STUDY DURATION: 104 WK)): inactive; negative
